Results on 19 compounds are retold here after patent US11578079B2, “SUMO inhibitor compounds and uses thereof” (CITY OF HOPE, priority 2018, dated 2023).

Holding throughout (design): key: + (less active); ++ (active); +++ (most active)
The target in assay [1] is T1, SUMO (Homo sapiens, UniProt Q9UBT2).
T1 sequence (Q9UBT2 1-640): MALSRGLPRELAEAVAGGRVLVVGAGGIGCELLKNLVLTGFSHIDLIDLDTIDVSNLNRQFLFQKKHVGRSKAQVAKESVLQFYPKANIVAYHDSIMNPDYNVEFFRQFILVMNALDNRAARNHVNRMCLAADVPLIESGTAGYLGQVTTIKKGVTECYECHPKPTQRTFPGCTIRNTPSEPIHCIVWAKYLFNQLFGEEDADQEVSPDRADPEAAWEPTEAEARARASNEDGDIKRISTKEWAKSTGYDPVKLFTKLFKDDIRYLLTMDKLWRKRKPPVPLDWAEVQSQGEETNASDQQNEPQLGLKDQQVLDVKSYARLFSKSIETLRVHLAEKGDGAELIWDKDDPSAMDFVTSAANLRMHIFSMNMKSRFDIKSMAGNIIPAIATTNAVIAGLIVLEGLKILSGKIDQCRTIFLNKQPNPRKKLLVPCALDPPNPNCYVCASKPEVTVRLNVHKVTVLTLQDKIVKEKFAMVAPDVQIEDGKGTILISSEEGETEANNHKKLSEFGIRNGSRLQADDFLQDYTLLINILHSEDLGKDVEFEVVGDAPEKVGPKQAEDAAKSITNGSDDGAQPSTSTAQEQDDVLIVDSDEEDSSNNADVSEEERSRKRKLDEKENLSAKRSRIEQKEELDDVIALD
T1 sequence (Q9UBE0 1-346 partner): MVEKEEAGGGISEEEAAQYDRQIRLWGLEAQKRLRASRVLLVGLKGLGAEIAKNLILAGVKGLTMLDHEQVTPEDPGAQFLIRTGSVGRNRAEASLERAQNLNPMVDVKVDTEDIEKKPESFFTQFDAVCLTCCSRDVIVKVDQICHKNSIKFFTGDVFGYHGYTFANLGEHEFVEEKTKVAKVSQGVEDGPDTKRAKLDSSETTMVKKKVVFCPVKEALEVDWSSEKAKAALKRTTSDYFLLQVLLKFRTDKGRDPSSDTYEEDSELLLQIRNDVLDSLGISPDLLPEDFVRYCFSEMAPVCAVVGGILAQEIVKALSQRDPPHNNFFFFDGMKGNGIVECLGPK
Description: SUMO activity (Table I, biological activities). Type of assay: biochemical.

The target of assay [2] is T2, Ubiquitin (Homo sapiens, UniProt P22314).
T2 sequence (P22314 1-1058): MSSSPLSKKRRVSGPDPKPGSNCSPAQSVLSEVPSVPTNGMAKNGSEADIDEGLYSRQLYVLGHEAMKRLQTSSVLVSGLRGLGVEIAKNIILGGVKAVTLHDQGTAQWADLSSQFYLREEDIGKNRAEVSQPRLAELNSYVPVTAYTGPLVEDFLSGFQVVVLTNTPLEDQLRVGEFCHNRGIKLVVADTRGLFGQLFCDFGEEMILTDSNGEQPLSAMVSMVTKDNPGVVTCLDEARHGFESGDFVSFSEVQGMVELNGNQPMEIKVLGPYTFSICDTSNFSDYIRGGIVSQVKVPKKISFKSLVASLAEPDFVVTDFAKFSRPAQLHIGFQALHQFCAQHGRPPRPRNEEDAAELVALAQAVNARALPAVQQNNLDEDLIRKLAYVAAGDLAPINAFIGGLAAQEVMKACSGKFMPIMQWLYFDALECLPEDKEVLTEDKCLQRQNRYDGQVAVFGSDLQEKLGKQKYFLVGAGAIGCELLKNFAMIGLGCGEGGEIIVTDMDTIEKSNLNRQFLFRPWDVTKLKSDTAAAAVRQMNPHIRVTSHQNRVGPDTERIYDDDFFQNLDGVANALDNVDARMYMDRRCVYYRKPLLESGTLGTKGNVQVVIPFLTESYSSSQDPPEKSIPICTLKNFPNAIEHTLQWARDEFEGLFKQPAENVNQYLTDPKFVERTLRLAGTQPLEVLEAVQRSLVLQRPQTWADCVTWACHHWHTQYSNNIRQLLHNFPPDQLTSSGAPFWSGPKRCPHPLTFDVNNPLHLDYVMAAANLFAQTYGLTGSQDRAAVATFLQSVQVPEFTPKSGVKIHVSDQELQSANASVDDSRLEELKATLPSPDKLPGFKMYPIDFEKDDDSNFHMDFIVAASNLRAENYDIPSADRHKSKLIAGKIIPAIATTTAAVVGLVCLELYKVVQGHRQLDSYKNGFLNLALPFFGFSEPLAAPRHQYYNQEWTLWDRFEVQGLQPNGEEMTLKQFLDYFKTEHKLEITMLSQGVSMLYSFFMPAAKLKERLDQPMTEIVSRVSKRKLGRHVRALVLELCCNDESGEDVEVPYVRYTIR
The assay can be described thus: Ubiquitin activity (Table I, biological activities). The assay is classed as biochemical.

Assay [3] deals with c-Myc. The assay can be described thus: c-Myc activity (Table I, biological activities).
Assay [4] addresses T3, Nedd8 (Homo sapiens, UniProt Q8TBC4).
T3 sequence (Q8TBC4 1-463): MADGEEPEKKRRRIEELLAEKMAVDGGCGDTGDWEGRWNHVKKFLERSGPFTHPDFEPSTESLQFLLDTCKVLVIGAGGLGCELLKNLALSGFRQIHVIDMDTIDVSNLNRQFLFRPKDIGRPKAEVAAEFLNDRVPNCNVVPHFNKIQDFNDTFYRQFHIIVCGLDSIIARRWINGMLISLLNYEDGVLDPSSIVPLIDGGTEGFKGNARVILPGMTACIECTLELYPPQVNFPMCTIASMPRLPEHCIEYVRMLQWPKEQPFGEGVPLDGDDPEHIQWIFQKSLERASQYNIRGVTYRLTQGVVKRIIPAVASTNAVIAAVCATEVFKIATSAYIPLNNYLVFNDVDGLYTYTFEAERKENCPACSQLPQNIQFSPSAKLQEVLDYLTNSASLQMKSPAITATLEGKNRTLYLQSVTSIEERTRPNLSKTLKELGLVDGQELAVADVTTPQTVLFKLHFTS
T3 sequence (Q13564 1-534 partner): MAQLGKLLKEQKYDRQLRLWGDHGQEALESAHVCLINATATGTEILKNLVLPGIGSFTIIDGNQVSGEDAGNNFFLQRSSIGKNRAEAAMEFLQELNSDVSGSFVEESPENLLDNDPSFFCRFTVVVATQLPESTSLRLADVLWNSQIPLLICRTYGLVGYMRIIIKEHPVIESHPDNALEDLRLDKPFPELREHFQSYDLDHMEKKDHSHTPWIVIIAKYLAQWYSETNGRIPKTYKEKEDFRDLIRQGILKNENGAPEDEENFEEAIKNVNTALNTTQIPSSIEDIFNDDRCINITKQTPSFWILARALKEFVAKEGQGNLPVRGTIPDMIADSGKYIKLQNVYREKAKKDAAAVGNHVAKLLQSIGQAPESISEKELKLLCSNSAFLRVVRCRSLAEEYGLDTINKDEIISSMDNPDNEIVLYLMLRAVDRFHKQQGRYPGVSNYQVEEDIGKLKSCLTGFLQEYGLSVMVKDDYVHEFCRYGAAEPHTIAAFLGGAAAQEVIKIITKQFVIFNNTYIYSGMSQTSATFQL
Description: Nedd8 activity (Table I, biological activities). Type of assay: biochemical.

Assay [5] deals with T4, Atg7 (Homo sapiens, UniProt O95352).
T4 sequence (O95352 1-703): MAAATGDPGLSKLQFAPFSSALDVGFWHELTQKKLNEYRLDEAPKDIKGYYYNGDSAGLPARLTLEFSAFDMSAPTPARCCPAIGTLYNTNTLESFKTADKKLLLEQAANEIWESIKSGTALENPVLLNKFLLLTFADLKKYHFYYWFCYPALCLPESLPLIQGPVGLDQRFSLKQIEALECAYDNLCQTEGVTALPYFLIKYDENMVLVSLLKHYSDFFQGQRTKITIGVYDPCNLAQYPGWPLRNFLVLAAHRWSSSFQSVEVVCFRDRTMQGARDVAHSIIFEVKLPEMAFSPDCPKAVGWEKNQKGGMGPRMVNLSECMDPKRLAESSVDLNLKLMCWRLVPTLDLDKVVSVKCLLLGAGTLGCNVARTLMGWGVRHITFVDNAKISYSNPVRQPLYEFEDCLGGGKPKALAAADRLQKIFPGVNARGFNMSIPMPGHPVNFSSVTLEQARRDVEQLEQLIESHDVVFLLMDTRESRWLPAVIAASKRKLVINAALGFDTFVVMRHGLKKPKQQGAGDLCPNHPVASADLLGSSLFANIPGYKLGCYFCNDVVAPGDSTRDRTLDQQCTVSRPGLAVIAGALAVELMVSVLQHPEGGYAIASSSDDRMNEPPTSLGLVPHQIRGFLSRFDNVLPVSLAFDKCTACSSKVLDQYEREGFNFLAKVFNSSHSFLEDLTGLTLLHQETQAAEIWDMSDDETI
Description: Atg7 activity (Table I, biological activities). Type of assay: biochemical.

Turning to `COC(=O)C1=C(C(=O)Nc2ccc(CN(C)C)cc2)C2OC1(C(Cc1ccccc1)Oc1ccccc1)C1OC21` (stereo not drawn) [Compound 545], the SUMO result in assay [1] is listed as “++”. For the same compound, the Ubiquitin entry in assay [2] was “+”. For the same compound, in assay [3], the c-Myc result is given as “++”.
In the case of `COC(=O)C1=C(C(N)=O)C2C=CC1(C(Cc1ccccc1)Nc1ccc(F)cc1)O2` (stereo not drawn) [Compound 540], the SUMO result in assay [1] is “++”. Also, the Nedd8 entry in assay [4] is recorded as “++”. The c-Myc result in assay [3] was “++”.
`COC(=O)C1=C(C(=O)NC2CCN(C)CC2)C2OC1(C(Cc1ccccc1)Oc1ccccc1)C1OC21` (stereo not drawn) [Compound 541]: the SUMO entry in assay [1] was “++”. In addition, the Nedd8 entry in assay [4] was “++”. Moreover, the c-Myc result in assay [3] was “++”.
Regarding `COC(=O)C1=C(C(=O)NCCN2CCCCC2)C2C=CC1(C(Cc1ccccc1)Nc1ccccc1)O2` (stereo not drawn) [Compound 462], the SUMO result in assay [1] is “++”. Moreover, the Atg7 entry in assay [5] is given as “++”. Further, the c-Myc result in assay [3] was “++”.
In the case of `Cc1ccc(S(=O)(=O)C2=CC3(C)C=CC2(C(Cc2ccccc2)Nc2ccccc2)O3)cc1` (stereo not drawn) [Compound 531], the SUMO result in assay [1] is “+”. Moreover, in assay [4], the Nedd8 result is listed as “++”.
Take `COC(=O)C1=C(C(=O)NCCN2CCN(C)CC2)C2C=CC1(C(Cc1ccccc1)Nc1ccccc1)O2` (stereo not drawn) [Compound 463]: the SUMO entry in assay [1] is “++”. Moreover, the Atg7 entry in assay [5] is recorded as “++”. The c-Myc entry in assay [3] was “++”.
As for `COC(=O)C1=C(CO)C2C=CC1(C(Cc1ccccc1)Oc1ccccc1)O2` (stereo not drawn) [Compound 584], in assay [1], the SUMO entry is listed as “+”. For the same compound, the Atg7 entry in assay [5] is “++”. Besides, the c-Myc result in assay [3] was “++”.
For the compound `COC(=O)C1=C(C(=O)NCCN(C)C)C2(C)C=CC1(C(Cc1ccccc1)Nc1ccccc1)O2` (stereo not drawn) [Compound 619], the SUMO entry in assay [1] is recorded as “++”. The Atg7 result in assay [5] is given as “+”. The c-Myc result in assay [3] is listed as “+”.
Turning to `COC(=O)C1=C(C(N)=O)C2C=CC1(C(Cc1ccccc1)Nc1cccc(CO)c1)O2` (stereo not drawn) [Compound 536], the SUMO result in assay [1] was “++”. The Nedd8 result in assay [4] was “++”. The Ubiquitin entry in assay [2] is “+”.
As for `COC(=O)C1=C(C(=O)Nc2ccc(OC)cc2)C2C=CC1(C(Cc1ccccc1)Nc1cccc(CO)c1)O2` (stereo not drawn) [Compound 537], in assay [1], the SUMO entry is on record as “++”. Further, the Nedd8 result in assay [4] is “++”. Besides, the c-Myc result in assay [3] is given as “+”.
Turning to `CCOC(=O)C1=CC2OC1(C(c1ccccc1)N(C(=O)C(F)(F)F)c1ccccc1)c1ccccc12` (stereo not drawn) [Compound 585], the SUMO result in assay [1] is “+”. For the same compound, the Atg7 result in assay [5] is “+”. Further, the c-Myc entry in assay [3] is “++”.
For the compound `COC(=O)C1=C(CO)C2(C)C=CC1(C(Cc1ccccc1)Oc1ccccc1)O2` (stereo not drawn) [Compound 626], the SUMO result in assay [1] was “+”. Further, in assay [5], the Atg7 entry is “++”.
For the compound `COC(=O)C1=C(C(=O)Nc2ccc(OCCN3CCOCC3)cc2)C2C=CC1(C(Cc1ccccc1)Nc1ccccc1)O2` (stereo not drawn) [Compound 502], the SUMO result in assay [1] is given as “+++”. The c-Myc entry in assay [3] is “+”.
For the compound `COC(=O)C1=C(C(=O)OC)C2(C(Cc3ccccc3)Nc3ccccc3)C=CC1(C)O2` (stereo not drawn) [Compound 586], in assay [1], the SUMO entry is “++”. In addition, in assay [3], the c-Myc entry is given as “+”.
The corresponding values for `COC(=O)C1=C(C(=O)Nc2ccc(OC)cc2)C2CCC1(C(Cc1ccccc1)Oc1ccccc1)O2` (stereo not drawn) [Compound 350] are “+” and “+”.
Regarding `COC(=O)C1=C(C(N)=O)C2C=CC1(C(Nc1ccccc1)C1CCC1)O2` (stereo not drawn) [Compound 179], the SUMO entry in assay [1] is listed as “+”. Besides, the c-Myc entry in assay [3] was “+”.
For the compound `COC(=O)C1=C(C(=O)Nc2ccc(C)nc2)C2C=CC1(C(Cc1ccccc1)Oc1ccccc1)O2` (stereo not drawn) [Compound 333], the SUMO entry in assay [1] was “+”. Further, the c-Myc result in assay [3] is “+”.
For `COC(=O)C1=C(C(=O)NC2CCN(C(=O)C3CC3)CC2)C2C=CC1(C(Cc1ccccc1)Nc1ccccc1)O2` (stereo not drawn) [Compound 377], in assay [1], the SUMO entry was “++”. In assay [3], the c-Myc entry is given as “+”.
The like results for `COC(=O)C1=C(C(=O)Nc2ccc(C)nc2)C2CCC1(C(Cc1ccccc1)Nc1ccccc1)O2` (stereo not drawn) [Compound 349] were, in that order, “+” and “+”.
